{"source": "patent US11084783B2", "about": "“O-alkyl-benzylideneguanidine derivatives and therapeutic use for the treatment of disorders associated with an accumulation of misfolded proteins” (INFLECTIS BIOSCIENCE, priority 2014, dated 2021)", "key": {"HeLa cells [1]": {"tested_on": "HeLa cells", "details": "tunicamycin, Tsaytler et al., Science 2011, cited from earlier work"}, "HeLa cells [2]": {"tested_on": "HeLa cells", "assay": "Cytoprotection from ER stress (tunicamycin), cell viability by WST-8", "format": "cell-based", "design": "key to Cytoprotection from ER stress compared to guanabenz: +: lower cytoprotective effect compared to Guanabenz; ++: similar cytoprotective effect compared to Guanabenz; +++: higher cytoprotective effect compared to Guanabenz", "details": "HeLa cells, 6 hour exposure to tunicamycin 5 μg/mL, compounds 0.5-10 μM, viability 48 h or 72 h", "excerpt": "Cytoprotection against ER stress can be measured by a suitable assay. For example, cytoprotection can be measured in HeLa cells in which ER stress is elicited by the addition of media containing tunicamycin, a mixture of homologous nucleoside antibiotics that inhibits the UDP-HexNAc: polyprenol-P HexNAc-1-P family of enzymes and is used to induce unfolded protein response. Cell viability can be detected in the presence and absence of inhibitor compounds after a set period of time, by measuring the reduction of WST-8 into formazan using a standard cell viability kit (such as Cell Viability Counting Kit-8 from Dojindo). Cytoprotection from ER stress is measured in terms of the percentage increase in viable cells (relative to control) after ER stress. Further details of a suitable assay are set forth in the accompanying Examples section.\nThis assay is described in Tsaytler et al. (Science 2011). HeLa Cells were cultured in Eagle's Minimum Essential Medium (EMEM) supplemented with Glutamine, Sodium Pyruvate, Non-Essential Amino Acids, Penicillin and Streptomycin containing 10% Foetal Bovine Serum (FBS), at 37° C. in 5% CO2 atmosphere. Cells were plated in 96 well plates at a density of 17,000 cells/mL the day before the treatment. ER stress was elicited by addition of 5 μg/mL tunicamycin (Sigma-Aldrich) together with PPP1R15A inhibitors (0.5-10 μM). Media were changed 6h later with fresh media and the cytoprotection was maintained by the addition of PPP1R15A inhibitors (0.5-10 μM). Cell viability was assessed by measuring the reduction of WST-8 into formazan using Cell Counting Kit-8 (Sigma) according to the supplier's recommendation, 48 h or 72h after tunicamycin treatment. Cytoprotection from ER stress is measured in terms of cytoprotective potency effect compared to the reference compound Guanabenz (Tsaytler et al., Science 2011) after ER stress: • ‘+’ no cytoprotective effect; • ‘+’ lower cytoprotective effect compared to Guanabenz; • ‘++’ similar cytoprotective effect compared to Guanabenz; • ‘+++’ higher cytoprotective effect compared to Guanabenz.\nTable 1 summarizes the results of cytoprotective effect of different compounds of the invention, compared to guanabenz, after the stress induced by a 6 hour exposure of tunicamycin."}, "Min6 cells": {"tested_on": "Min6 cells", "assay": "Protection against accumulation of misfold prone Insulin Akita", "format": "cell-based", "details": "Min6 cells nucleofected with Insulin Akita, viability 9 days after treatment", "experimental": "Min6 cells were nucleofected with Insulin^Akita mutant constructs and seeded in 96 well-plates at 300,000 cells/mL and 24h later, cells were treated with molecules or left untreated. As a control, cells were nucleofected with non-relevant plasmid. 6 days later, a selective agent was added (G418). Cell viability was assessed by measuring the reduction of WST-8 into formazan using Cell Counting Kit-8 (Sigma) according to the supplier's recommendation, 9 days after treatment."}, "INS1 insulinoma cell": {"tested_on": "INS1 insulinoma cell", "assay": "INS1 cell line cytoprotection from ER stress (tunicamycin)", "format": "cell-based", "details": "6 hour exposure to tunicamycin 2.5 μg/mL, different concentrations, viability 72h", "experimental": "(§1) Cells were plated in 96 well plates at a density of 0.5.10^6 cells/mL for Min6 cell line, 0,4.10^6 cells/mL for INS1 cell line the day before the treatment. ER stress was elicited by addition of 2.5 μg/mL tunicamycin (Sigma Aldrich) together with phosphatases inhibitors. Media were changed 6h later with fresh media and the cytoprotection was maintained by the addition of phosphatases inhibitors. Cell viability was assessed by measuring the reduction of WST-8 into formazan using Cell Counting Kit-8 (Sigma) according to the supplier's recommendation, 72h after tunicamycin treatment."}, "human alpha2A receptor": {"target": "T1, human alpha2A receptor (Homo sapiens, UniProt P08913)", "T1 construct": "CHO cells endogenously expressing human alpha2A receptor; endogenous in cells; host or cells: CHO cells", "T1 sequence (P08913 1-465)": "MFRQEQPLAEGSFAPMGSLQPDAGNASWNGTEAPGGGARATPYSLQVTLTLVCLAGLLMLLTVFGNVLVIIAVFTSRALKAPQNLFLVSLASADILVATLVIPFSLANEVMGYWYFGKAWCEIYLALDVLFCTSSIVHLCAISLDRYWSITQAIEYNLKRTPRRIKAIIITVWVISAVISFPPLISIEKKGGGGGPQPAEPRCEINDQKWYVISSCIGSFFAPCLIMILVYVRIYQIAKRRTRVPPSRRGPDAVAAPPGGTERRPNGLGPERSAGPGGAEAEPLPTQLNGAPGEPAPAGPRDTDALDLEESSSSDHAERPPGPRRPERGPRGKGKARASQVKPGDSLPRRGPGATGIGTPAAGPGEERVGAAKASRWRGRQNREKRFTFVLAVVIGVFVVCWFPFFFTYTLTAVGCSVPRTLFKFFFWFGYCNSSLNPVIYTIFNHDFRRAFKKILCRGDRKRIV", "assay": "Functional GPCR assay for adrenergic α2A receptor (CellKey detection method)", "format": "cell-based", "details": "agonist activity, CHO cells expressing human alpha2A receptor, impedance (CellKey); read-out: Functional adrenergic alpha2 receptor assay EC50", "experimental": "The agonist activity of compounds was evaluated on CHO cells […] expressing human alpha2A receptor and was determined by measuring their effects on impedance modulation using the CellKey detection method. Cells were seeded onto 96-well plate at density of 6×10^4 cells/well in HBSS buffer (Invitrogen)+20 mM HEPES (Invitrogen) with 0.1% BSA and are allowed to equilibrate for 60 min at 28° C. before the start of the experiment. Plates were placed onto the system and measurements were made at a temperature of 28° C. Solutions were added simultaneously to all 96 wells using an integrated fluidics system: HBSS (basal control), reference agonist at 100 nM (stimulated control), reference agonist (EC50 determination) or the test compounds. Impedance measurements are monitored for 10 minutes after ligand addition. The standard reference agonist is epinephrine, which is tested in each experiment at several concentrations to generate a concentration-response curve from which its EC50 value is calculated.\nDose-response data from test compounds were analysed with Hill software using non-linear regression analysis of the concentration-response curves generated with mean replicate values using Hill equation curve fitting."}, "[3]": {"tested_on": "mouse embryonic fibroblasts lipofected with poly I:C", "assay": "In vitro inflammation/infection model: poly I:C induced mouse embryonic fibroblasts", "format": "cell-based", "details": "25 μM, 6h, IFN-beta ELISA in culture supernatants", "experimental": "Mouse Embryonic Fibroblasts (MEFs) were lipofected with poly I:C and treated with […] compounds of the invention (25 μM) for 6h. After 6h of culture, elF2alpha-phosphorylation (elF2a-P) and PPP1R15A (GADD34) expression was monitored by western blotting, while type-1 Interferon(IFN)-beta production was quantified in culture supernatants by ELISA. Control (nt) and poly I:C/DMSO are respectively negative and positive controls. Poly I:C (polyinosinic:polycytidylic acid or polyinosinic-polycytidylic acid sodium salt) is an immunostimulant used to simulate viral infections. Poly I:C which is structurally similar to double-stranded RNA, is known to interact with toll-like receptor 3 which is expressed in the intracellular compartments of B-cells and dendritic cells. Guanabenz (25 μM) was used as reference inhibitory compound.\nMEFs were cultured in DMEM, 10% FCS (HyClone, Perbio), 100 units/ml penicillin, 100 μg/ml streptomycin, 2 mM glutamine, 1× MEM non-essential amino acids and 50 μM 2-mercaptoethanol. MEFS were treated for the indicated time with 10 μg/ml poly I:C (InvivoGen) in combination with lipofectamine 2000 (Invitrogen).\nCells were lysed in 1% Triton X-100, 50 mM Hepes, 10 mM NaCl, 2.5 mM MgCl2, 2 mM EDTA, 10% glycerol, supplemented with Complete Mini Protease Inhibitor Cocktail Tablets (Roche). Protein quantification was performed using the BCA Protein Assay (Pierce). 25-50 μg of Triton X-100-soluble material was loaded on 2%-12% gradient or 8% SDS-PAGE before immunoblotting and chemi-luminescence detection (SuperSignal West Pico Chemi-luminescent Substrate, Pierce). Rabbit polyclonal antibodies recognizing GADD34 (C-19) were from Santa Cruz Biotechnology and anti-elF2alpha[pS^52] were from Invitrogen.\nIFN-beta quantification in culture supernatant was performed using the Mouse Interferon Beta ELISA kit (PBL Interferon Source) according to manufacturer instructions.\nNormal response of MEFs to poly I:C is characterized by PPP1R15A expression, increase in elF2alpha-P (variable in time and related to the levels PPP1R15A expression) mediated by PKR activation and type-I IFN production (range 500 to 700 pg/ml). Knock out PPP1R15A MEFs are unable to produce this cytokine in response to poly I:C.\nThe potency of compounds of the invention to inhibit PPP1R15A was evaluated by measuring the increase of elF2alpha phosphorylation, the decrease of PPP1R15A expression due to its own pharmacological inhibition resulting in general protein synthesis inhibition and type-I IFN production."}, "Min6 insulinoma cell": {"tested_on": "Min6 insulinoma cell", "assay": "Min6 cell line cytoprotection from ER stress (tunicamycin)", "format": "cell-based", "details": "6 hour exposure to tunicamycin 2.5 μg/mL, different concentrations, viability 72h", "experimental": "as §1"}}, "note": "pEC50: −log10 of the molar value."}
{"smiles": "CCC1(C2=NCCN2)Cc2ccccc2O1", "note": "(stereo not drawn) [efaroxan]", "values": [{"measurement": "protection of cells from cytotoxic ER stress", "setting": "HeLa cells [1]", "value": "Neither the α2-adrenergic receptor agonist clonidine, nor the α2-adrenergic receptor antagonist efaroxan protected cells"}]}
{"smiles": "Clc1cccc(Cl)c1N=C1NCCN1", "note": "[clonidine]", "values": [{"measurement": "protection of cells from cytotoxic ER stress", "setting": "HeLa cells [1]", "value": "Neither the α2-adrenergic receptor agonist clonidine, nor the α2-adrenergic receptor antagonist efaroxan protected cells"}]}
{"smiles": "NC(N)=N/N=C/c1c(Cl)cccc1Cl", "note": "[guanabenz, 2-(2,6-dichlorobenzylidene)hydrazinecarboximidamide]", "values": [{"measurement": "pEC50", "setting": "HeLa cells [1]; read-out: median effective concentration, survival of HeLa cells exposed to ER stress", "value": "~6.40"}]}
{"smiles": "CCONC(=N)N/N=C/c1ccncc1Cl", "note": "[Compound 16, 2-[(3-chloropyridin-4-yl)methylidene]-N-ethoxyhydrazinecarboximidamide]", "values": [{"measurement": "Cytoprotection from ER stress compared to guanabenz", "setting": "HeLa cells [2]", "value": "+"}, {"measurement": "prevention of cell death associated with accumulation of misfold prone Insulin Akita (FIG. 6)", "setting": "Min6 cells", "value": "prevent cell death"}, {"measurement": "prevention of INS1 insulinoma cell death (FIG. 8)", "setting": "INS1 insulinoma cell", "value": "prevent INS1 insulinoma cell death"}, {"measurement": "pEC50", "setting": "human alpha2A receptor", "value": "< 4.48"}, {"measurement": "prevention of type-I IFN production (FIG. 9)", "setting": "[3]", "value": "prevent type-I IFN production"}, {"measurement": "prevention of Min6 insulinoma cell death (FIG. 7)", "setting": "Min6 insulinoma cell", "value": "prevent Min6 insulinoma cell death"}]}
